Test results published in PubChem BioAssay (NCI).
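Assay format: 96-well plates, 48-hour exposure. GI50: concentration for 50% inhibition of growth. TGI denotes the concentration required for complete inhibition of growth.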

Key:
Assay in all cases: inhibition of tumour cell growth, NCI panel, 48 h
PC-3 prostate = system: PC-3 prostate
M14 melanoma = system: M14 melanoma
HOP-62 NSCLC = system: HOP-62 NSCLC
SNB-75 CNS = system: SNB-75 CNS
U251 CNS = system: U251 CNS
SN12C renal = system: SN12C renal
UACC-257 melanoma = system: UACC-257 melanoma
MDA-MB-231 breast = system: MDA-MB-231 breast
SK-MEL-2 melanoma = system: SK-MEL-2 melanoma
MDA-MB-435 = system: MDA-MB-435

SMILES | GI50 (PC-3 prostate) [µM] | TGI (PC-3 prostate) [µM] | GI50 (M14 melanoma) [µM] | TGI (M14 melanoma) [µM] | GI50 (HOP-62 NSCLC) [µM] | TGI (HOP-62 NSCLC) [µM] | GI50 (SNB-75 CNS) [µM] | TGI (SNB-75 CNS) [µM] | GI50 (U251 CNS) [µM] | TGI (U251 CNS) [µM] | GI50 (SN12C renal) [µM] | TGI (SN12C renal) [µM] | GI50 (UACC-257 melanoma) [µM] | TGI (UACC-257 melanoma) [µM] | GI50 (MDA-MB-231 breast) [µM] | TGI (MDA-MB-231 breast) [µM] | GI50 (SK-MEL-2 melanoma) [µM] | TGI (SK-MEL-2 melanoma) [µM] | GI50 (MDA-MB-435) [µM] | TGI (MDA-MB-435) [µM]
Nc1cc2nc3ccccc3oc-2cc1=O | 16.7 | > 100 | 1.61 | 3.01 | 2.94 | 6.64 | 1.82 | 4.63 | 1.73 | 12.3 | 1.46 | 2.9 | 2.35 | 6.68 | 22.9 | > 100 | 6.62 | 25.7 | 0.516 | 1.77
CCOC(=O)c1nc2cc(C(F)(F)F)ccc2[n+]([O-])c1C | > 100 | > 100 | > 100 | > 100 | > 100 | > 100 | > 100 | > 100 | > 100 | > 100 | > 100 | > 100 | > 100 | > 100 | > 100 | > 100 | > 100 | > 100 | > 100 | > 100
CNC(=O)c1cc2c(Oc3ccc(NC(=S)NC(=O)Cc4ccccc4)cc3F)ccnc2cc1OC | 16.7 | > 100 | > 24.3 | > 100 | 22.6 | > 100 | 0.183 | 4.68 | > 100 | > 100 | 2.18 | > 100 | 9.5 | > 100 | 3.87 | > 100 | > 29.9 | > 100 | > 27.6 | > 100
O=Nc1c(O)c2ccccc2c2ccccc12 | 0.633 | 2.73 | 0.446 | 1.6 | 0.768 | 2.41 | 1.51 | 2.92 | 0.496 | 2.09 | 0.449 | 1.88 | 0.476 | 1.75 | 0.849 | 5.25 | 1.8 | 3.99 | 0.179 | 0.317
NC(CO)C(=O)NCC(=O)O (stereo not given) | – | > 100 | – | > 100 | – | > 100 | – | > 100 | – | > 100 | – | > 100 | – | > 100 | – | > 100 | – | > 100 | – | > 100
CCN(Cc1cccc(F)c1F)c1ccc(CO)c(Cl)c1 | 15.4 | 37.2 | 17.9 | 35.1 | 1.82 | 24.6 | 12.4 | 40.5 | 0.63 | 22.2 | 13.4 | 30.2 | 0.0896 | 0.326 | 16.1 | 36.1 | 4.68 | 22.6 | 17.7 | 37.1
NCCN1C(=O)c2ccccc2C1(O)c1ccc(Cl)cc1 (stereo not given) | – | 50 | – | 36 | – | 89.8 | – | 97.6 | – | 29.6 | – | > 100 | – | 31.8 | – | 34.7 | – | 30.8 | – | 28.6
